By EC50 is commonly meant the midpoint of the concentration-response curve. What is called IC50 is the midpoint of a concentration-inhibition curve. Read a low IC50 as higher potency.

Consider 23 compounds from patent publication US10336762B2 (priority 2017, dated 2019).

One experiment has as its system TNFα. Put plainly: cells. Format: cell-based, human. Conditions: Homo sapiens, Monocyte, LPS-stimulated human monocytes, TNFα content; read-out: EC50 TNF.
In another experiment the target is IRAK4 enzyme (Homo sapiens (Human), UniProt Q9NWZ3). Put plainly: biochemical. It counts as biochemical. Conditions: IRAK4 enzyme, TR-FRET (HTRF), 500 μM ATP. On the technique in general: Time-resolved FRET reads energy transfer from a long-lived donor to a nearby acceptor.
Chain of IRAK4 enzyme (Q9NWZ3 whole entry): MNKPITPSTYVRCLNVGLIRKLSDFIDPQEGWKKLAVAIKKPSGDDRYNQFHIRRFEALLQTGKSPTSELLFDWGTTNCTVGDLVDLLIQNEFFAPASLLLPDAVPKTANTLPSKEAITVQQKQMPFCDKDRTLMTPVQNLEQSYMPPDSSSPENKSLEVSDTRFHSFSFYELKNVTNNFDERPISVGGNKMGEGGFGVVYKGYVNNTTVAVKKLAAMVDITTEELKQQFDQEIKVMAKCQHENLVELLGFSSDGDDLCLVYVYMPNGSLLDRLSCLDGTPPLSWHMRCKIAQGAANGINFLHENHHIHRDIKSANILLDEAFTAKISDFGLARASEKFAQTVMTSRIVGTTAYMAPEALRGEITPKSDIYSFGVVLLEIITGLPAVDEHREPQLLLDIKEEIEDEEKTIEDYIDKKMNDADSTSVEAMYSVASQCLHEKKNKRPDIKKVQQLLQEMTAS

On to `CC(C)(O)[C@H](F)CNC(=O)c1cnc(-c2ccc3cc(C#N)cnn23)cc1N[C@H]1C[C@H](CO)C1` [Example 536, 6-(3-cyanopyrrolo[1,2-b]pyridazin-7-yl)-N-((R)-2-fluoro-3-hydroxy-3-methylbutyl)-4-(((1r,3R)-3-(hydroxymethyl)cyclo-butyl)amino)nicotinamide], for which, in the experiment with TNFα, the EC50 amounted to 0.016 µM. Moreover, the IC50 against IRAK4 enzyme was below 0.001 µM.
In the same order, the values of `CC(C)(O)[C@H](F)CNC(=O)c1cnc(-c2ccc3cc(C#N)cnn23)cc1NC12CCC(C(F)F)(CC1)CC2` [Example 537, (R)-6-(3-cyanopyrrolo[1,2-b]pyridazin-7-yl)-4-((4-(difluoromethyl)bicyclo[2.2.2]octan-1-yl)amino)-N-(2-fluoro-3-hydroxy-3-methylbutyl)nicotinamide] are 0.018 µM and 0.001 µM.
On the same counts, the results for `CCC(=O)NC[C@H]1C[C@H](Nc2cc(-c3ccc4cc(C#N)cnn34)ncc2C(=O)NC[C@@H](F)C(C)(C)O)C1` [Example 538, 6-(3-cyanopyrrolo[1,2-b]pyridazin-7-yl)-N-((R)-2-fluoro-3-hydroxy-3-methylbutyl)-4-(((1r,3R)-3-(propionamidomethyl)cyclobutyl)amino)nicotin-amide] are 0.05 µM and below 0.001 µM.
With `CC(C)OC(=O)NC[C@H]1C[C@H](Nc2cc(-c3ccc4cc(C#N)cnn34)ncc2C(=O)NC[C@@H](F)C(C)(C)O)C1` [Example 539, isopropyl (((1R,3r)-3-((2-(3-cyanopyrrolo[1,2-b]pyridazin-7-yl)-5-(((R)-2-fluoro-3-hydroxy-3-methylbutyl)carbamoyl)pyridin-4-yl)amino)cyclo-butyl)methyl)carbamate], in the experiment on TNFα, the EC50 worked out at 0.012 µM. Besides, the IC50 against IRAK4 enzyme is below 0.001 µM.
On the same counts, the results for `CCOC(=O)NC[C@H]1C[C@H](Nc2cc(-c3ccc4cc(C#N)cnn34)ncc2C(=O)NC[C@@H](F)C(C)(C)O)C1` [Example 540, ethyl (((1R,3r)-3-((2-(3-cyanopyrrolo[1,2-b]pyridazin-7-yl)-5-(((R)-2-fluoro-3-hydroxy-3-methylbutyl)carbamoyl)pyridin-4-yl)amino)cyclo-butyl)methyl)carbamate] are 0.012 µM and below 0.001 µM.
With `CN(C)C(=O)NC[C@H]1C[C@H](Nc2cc(-c3ccc4cc(C#N)cnn34)ncc2C(=O)NC[C@@H](F)C(C)(C)O)C1` [Example 541, 6-(3-cyanopyrrolo[1,2-b]pyridazin-7-yl)-4-(((1r,3R)-3-((3,3-dimethyl-ureido)methyl)cyclobutyl)amino)-N-((R)-2-fluoro-3-hydroxy-3-methylbutyl) nicotinamide], the EC50 in the experiment on TNFα was determined as 0.065 µM. For the same compound, the IC50 at IRAK4 enzyme was below 0.001 µM.
Take `CC(C)(O)[C@H](F)CNC(=O)c1cnc(-c2ccc3cc(C#N)cnn23)cc1N[C@H]1C[C@H](CNC(=O)C(F)(F)F)C1` [Example 542, 6-(3-cyanopyrrolo[1,2-b]pyridazin-7-yl)-N—((R)-2-fluoro-3-hydroxy-3-methylbutyl)-4-(((1r,3R)-3-((2,2,2-trifluoroacetamido)methyl)cyclobutyl)amino)nicotinamide]: the concentration for a half-maximal effect (EC50) in the experiment on TNFα amounted to 0.027 µM. At IRAK4 enzyme, this compound registered a half-inhibitory concentration (IC50) below 0.001 µM.
`COC(=O)C12CCCC(Nc3cc(-c4ccc5cc(C#N)cnn45)ncc3C(=O)NC[C@@H](F)C(C)(C)O)(CC1)CC2` [Example 543, (R)-methyl 5-((2-(3-cyano-pyrrolo[1,2-b]pyridazin-7-yl)-5-((2-fluoro-3-hydroxy-3-methylbutyl)carbamoyl)pyridin-4-yl)amino)bicyclo[3.2.2] nonane-1-carboxylate]: the EC50 in the experiment on TNFα was determined as 0.049 µM. The same compound showed an IC50 against IRAK4 enzyme of 0.002 µM.
For `CC(=O)NC[C@H]1C[C@H](Nc2cc(-c3ccc4cc(C#N)cnn34)ncc2C(=O)NC[C@@H](F)C(C)(C)O)C1` [Example 544, 4-(((1r,3R)-3-(acetamidomethyl)cyclobutyl)amino)-6-(3-cyanopyrrolo[1,2-b]pyridazin-7-yl)-N-((R)-2-fluoro-3-hydroxy-3-methylbutyl)nicotinamide], the EC50 with TNFα stood at 0.081 µM. This compound returned an IC50 at IRAK4 enzyme of 0.001 µM.
On the same counts, the results for `COC(=O)NC[C@H]1C[C@H](Nc2cc(-c3ccc4cc(C#N)cnn34)ncc2C(=O)NC[C@@H](F)C(C)(C)O)C1` [Example 545, Methyl (((1R,3r)-3-((2-(3-cyanopyrrolo[1,2-b]pyridazin-7-yl)-5-(((R)-2-fluoro-3-hydroxy-3-methylbutyl)carbamoyl)pyridin-4-yl)amino)cyclobutyl)methyl)carbamate] are 0.005 µM and below 0.001 µM.
With `CC(=O)NCC12CC(Nc3cc(-c4ccc5cc(C#N)cnn45)ncc3C(=O)NC[C@@H](F)C(C)(C)O)(C1)C2` [Example 546, (R)-4-((3-(acetamidomethyl)bicyclo[1.1.1]pentan-1-yl)amino)-6-(3-cyano-pyrrolo[1,2-b]pyridazin-7-yl)-N-(2-fluoro-3-hydroxy-3-methylbutyl) nicotinamide], the EC50 with TNFα was 0.09 µM. The compound also gave an IC50 on IRAK4 enzyme of 0.001 µM.
On the same counts, the results for `COC(=O)NCC12CC(Nc3cc(-c4ccc5cc(C#N)cnn45)ncc3C(=O)NC[C@@H](F)C(C)(C)O)(C1)C2` [Example 547, (R)-methyl ((3-((2-(3-cyanopyrrolo[1,2-b]pyridazin-7-yl)-5-((2-fluoro-3-hydroxy-3-methylbutyl)carbamoyl)pyridin-4-yl)amino)bicyclo[1.1.1]pentan-1-yl)methyl)carbamate] are 0.028 µM and below 0.001 µM.
With `CC(C)(O)[C@H](F)CNC(=O)c1cnc(-c2ccc3cc(C#N)cnn23)cc1N[C@H]1C[C@H](C(C)(C)O)C1` [Example 548, 6-(3-cyanopyrrolo[1,2-b]pyridazin-7-yl)-N-((R)-2-fluoro-3-hydroxy-3-methylbutyl)-4-(((1r,3R)-3-(2-hydroxypropan-2-yl)cyclobutyl)amino) nicotinamide], in the experiment with TNFα, the EC50 came out at 0.022 µM. On IRAK4 enzyme, this compound gave an IC50 of 0.001 µM.
As for `CC(C)(C)OC(=O)NC[C@H]1C[C@H](Nc2cc(-c3ccc4cc(C#N)cnn34)ncc2C(=O)NC[C@@H](F)C(C)(C)O)C1` [Example 549, tert-butyl (((1R,3r)-3-((2-(3-cyanopyrrolo[1,2-b]pyridazin-7-yl)-5-(((R)-2-fluoro-3-hydroxy-3-methylbutyl)carbamoyl)pyridin-4-yl)amino)cyclobutyl)methyl)carbamate], the EC50 with TNFα came to 0.149 µM. Also, the IC50 on IRAK4 enzyme is 0.002 µM.
On the same counts, the results for `CC(C)(C)OC(=O)NCC12CC(Nc3cc(-c4ccc5cc(C#N)cnn45)ncc3C(=O)NC[C@@H](F)C(C)(C)O)(C1)C2` [Example 550, (R)-tert-butyl ((3-((2-(3-cyanopyrrolo[1,2-b]pyridazin-7-yl)-5-((2-fluoro-3-hydroxy-3-methylbutyl)carbamoyl)pyridin-4-yl)amino)bicyclo[1.1.1]pentan-1-yl)methyl)carbamate] are 0.364 µM and 0.002 µM.
In the same order, the values of `CC(C)Nc1cc(-c2ccc3cc(C#N)cnn23)ncc1C(=O)NCC(F)(F)CN` [Example 552, N-(3-amino-2,2-difluoro-propyl)-6-(3-cyano-pyrrolo[1,2-b]pyridazin-7-yl)-4-(isopropyl-amino)nicotinamide] are 1.16 µM and 0.007 µM.
In the same order, the values of `COC(=O)NC(C)(CCNC(=O)c1cnc(-c2ccc3cc(C#N)cnn23)cc1NC(C)C)C(F)F` (stereo not shown) [Example 553, methyl (4-(6-(3-cyano-pyrrolo[1,2-b]pyridazin-7-yl)-4-(isopropylamino)nicotinamido)-1,1-difluoro-2-methylbutan-2-yl)carbamate] are 0.183 µM and 0.002 µM.
Take `CC(C)Nc1cc(-c2ccc3cc(C#N)cnn23)ncc1C(=O)NCC(F)(F)CNC(=O)OC(C)(C)C` [Example 554, tert-butyl (3-(6-(3-cyano-pyrrolo[1,2-b]pyridazin-7-yl)-4-(isopropylamino)nicotinamido)-2,2-difluoropropyl)carbamate]: the EC50 in the experiment with TNFα stood at 0.439 µM. In addition, half-maximal inhibition against IRAK4 enzyme (IC50) required 0.035 µM.
`CC(C)Nc1cc(-c2ccc3cc(C#N)cnn23)ncc1C(=O)NCCC(C)(N)C(F)F` (stereo not shown) [Example 555, N-(3-amino-4,4-difluoro-3-methylbutyl)-6-(3-cyano-pyrrolo[1,2-b]pyridazin-7-yl)-4-(isopropylamino) nicotinamide]: the EC50 in the experiment with TNFα came out at 0.095 µM. On IRAK4 enzyme, this compound came in with an IC50 of 0.001 µM.
On the same counts, the results for `COC(=O)NC[C@H]1CC[C@H](Nc2cc(-c3ccc4cc(C#N)cnn34)ncc2C(=O)NC[C@@H](F)C(C)(C)O)CC1` [Example 556, methyl (((1R,4r)-4-((2-(3-cyanopyrrolo[1,2-b]pyridazin-7-yl)-5-(((R)-2-fluoro-3-hydroxy-3-methylbutyl)carbamoyl)pyridin-4-yl)amino)cyclo-hexyl)methyl)carbamate] are 0.018 µM and 0.001 µM.
In the same order, the values of `CC(=O)NC[C@H]1CC[C@H](Nc2cc(-c3ccc4cc(C#N)cnn34)ncc2C(=O)NC[C@@H](F)C(C)(C)O)CC1` [Example 557, 4-(((1r,4R)-4-(acetamidomethyl)cyclo-hexyl)amino)-6-(3-cyano-pyrrolo[1,2-b]pyridazin-7-yl)-N-((R)-2-fluoro-3-hydroxy-3-methylbutyl) nicotinamide] are 0.027 µM and below 0.001 µM.
In the same order, the values of `CC(C)(O)[C@H](F)CNC(=O)c1cnc(-c2ccc3cc(C#N)cnn23)cc1N[C@H]1CC[C@H](CN)CC1` [Example 558, 4-(((1r,4R)-4-(amino-methyl)cyclohexyl)amino)-6-(3-cyano-pyrrolo[1,2-b]pyridazin-7-yl)-N-((R)-2-fluoro-3-hydroxy-3-methylbutyl) nicotinamide] are 0.19 µM and below 0.001 µM.
For `CC(N)(CCNc1cc(-c2ccc3cc(C#N)cnn23)ncc1C(=O)NC[C@@H](F)C(C)(C)O)C(F)F` (stereo partly drawn) [Example 559, 4-((3-amino-4,4-difluoro-3-methylbutyl)amino)-6-(3-cyanopyrrolo[1,2-b]pyridazin-7-yl)-N-((R)-2-fluoro-3-hydroxy-3-methylbutyl)nicotinamide], the EC50 in the experiment on TNFα stood at 0.078 µM. This compound registered an IC50 against IRAK4 enzyme of 0.001 µM.
